Results as given in patent US8536168B2 (Novartis AG, priority 2007, dated 2013).
Where two headings read alike, the source gives them in different places.

Legend:
[1] = molecular target: mouse Smoothened receptor (Mus musculus, UniProt P56726); experiment: Smo binding assay, displacement of radio-labeled smoothened agonist, filter binding format (mouse); conditions: displacement of small molecule agonist of Smoothened, read-out: Mouse Smo bdg., IC50
From the text: A Smo binding assay was developed using radio-labeled smoothened agonist for compound competition.

Gli-luciferase activity = experiment: Reporter gene assay (RGA) in TMHh12 cells, antagonism of Gli-luciferase activity in the presence of a Smo agonist; type: cell-based
Method: Activity of the compounds was evaluated using a reporter gene assay (RGA) in TMHh12 cells.

[2] = 25 nM small molecule Smo agonist, read-out: RGA (25 nM Smo agonist) IC50
[3] = read-out: RGA (1 nM Smo agonist) IC50, 1 nM small molecule Smo agonist

Chain of mouse Smoothened receptor (P56726 33-793): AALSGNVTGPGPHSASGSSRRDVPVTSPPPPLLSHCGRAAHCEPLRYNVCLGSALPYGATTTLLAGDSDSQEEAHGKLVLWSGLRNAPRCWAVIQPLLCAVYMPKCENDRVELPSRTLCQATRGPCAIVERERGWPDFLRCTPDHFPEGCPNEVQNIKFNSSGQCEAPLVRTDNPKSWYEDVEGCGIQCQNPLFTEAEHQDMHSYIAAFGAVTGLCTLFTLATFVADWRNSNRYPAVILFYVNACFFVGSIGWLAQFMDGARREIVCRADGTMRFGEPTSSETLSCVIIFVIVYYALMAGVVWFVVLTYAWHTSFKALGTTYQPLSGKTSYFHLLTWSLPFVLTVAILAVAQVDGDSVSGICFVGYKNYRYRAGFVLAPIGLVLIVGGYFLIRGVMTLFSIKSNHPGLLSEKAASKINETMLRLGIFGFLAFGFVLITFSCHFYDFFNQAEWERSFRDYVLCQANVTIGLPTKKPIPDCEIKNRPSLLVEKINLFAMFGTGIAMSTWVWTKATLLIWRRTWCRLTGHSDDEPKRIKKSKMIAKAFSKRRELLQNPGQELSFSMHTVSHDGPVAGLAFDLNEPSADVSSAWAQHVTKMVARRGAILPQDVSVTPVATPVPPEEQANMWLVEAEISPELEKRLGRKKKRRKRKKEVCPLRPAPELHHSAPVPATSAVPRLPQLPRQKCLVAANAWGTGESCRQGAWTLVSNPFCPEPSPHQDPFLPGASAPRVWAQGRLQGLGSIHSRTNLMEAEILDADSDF

Row | Structure (SMILES) | IC50 [1] [µM] | IC50 (Gli-luciferase activity; [2]) [µM] | IC50 (Gli-luciferase activity; [3]) [µM]
1 | COCCN(C)C(=O)c1ccc(N2CCN(c3nnc(Cc4ccccc4)c4ccccc34)CC2)nc1 [Example 54g] | 0.1 to 1 | 0.1 to 1 | < 0.1
2 | FC(F)(F)c1cnc(N2CCCN(c3nnc(Cc4ccccc4)c4ccccc34)CC2)c(Cl)c1 [Example 17] | 0.1 to 1 | 1 to 10 | < 0.1
3 | CCN1CCOc2cc3c(cc21)Oc1cc2c(cc1=N3)OCC[N+]=2CCCCCC(=O)NCc1ccc(N2CCN(c3nnc(Cc4ccccc4)c4ccccc34)CC2)nc1 [Example 74] | – | 0.1 to 1 | < 0.1
4 | c1ccc(N2CCN(c3nnc(Cc4ccncc4)c4ccccc34)CC2)cc1 [Example 6] | – | 10 to 40 | 1 to 10
5 | CC(=O)NCc1ccc(N2CCN(c3nnc(Cc4ccncc4)c4ccccc34)CC2)cc1 [Example 76] | 10 to 40 | 10 to 40 | 1 to 10
6 | CCc1cnc(N2CCCN(c3nnc(Cc4ccccc4)c4ccccc34)CC2)nc1 [Example 45] | < 0.1 | 0.1 to 1 | < 0.1
7 | NCc1ccc(N2CCN(c3nnc(Cc4ccccc4)c4ccccc34)CC2)nc1 [Example 71] | – | 0.1 to 1 | < 0.1
8 | COC(=O)CC(SCC(=O)NCc1ccc(N2CCN(c3nnc(Cc4ccccc4)c4ccccc34)CC2)nc1)C(=O)OC (stereo not drawn) [Example 215] | – | 1 to 10 | 0.1 to 1
9 | CNC(=O)NCc1ccc(N2CCN(c3nnc(Cc4ccccc4)c4ccccc34)CC2)nc1 [Example 206] | 0.1 to 1 | 0.1 to 1 | < 0.1
10 | c1ccc(Cc2nnc(N3CCN(c4cccc5ccccc45)CC3)c3ccccc23)cc1 [Example 34] | 1 to 10 | 1 to 10 | 0.1 to 1
11 | Cc1ccnc(N2CCN(c3nnc(Cc4ccccc4)c4ccccc34)CC2)n1 [Example 47] | < 0.1 | < 0.1 | < 0.1
12 | Cc1cc(Cc2nnc(N3CCN(c4ccccc4)CC3)c3ccccc23)ccn1 [Example 11] | – | 10 to 40 | 1 to 10
13 | c1ccc2c(N3CCN(c4ccncc4)CC3)nnc(Cc3ccncc3)c2c1 [Example 26] | 1 to 10 | – | 1 to 10
14 | CN(CCO)C(=O)c1ccc(N2CCN(c3nnc(Cc4ccccc4)c4ccccc34)CC2)nc1 [Example 54c, 6-[4-(4-Benzyl-phthalazin-1-yl)-piperazin-1-yl]-N-(2-hydroxy-ethyl)-N-methyl-nicotinamide] | 0.1 to 1 | 0.1 to 1 | < 0.1
15 | c1ccc(Cc2nnc(N3CCN(c4ccncc4)CC3)c3ccccc23)cc1 [Example 37] | 1 to 10 | 1 to 10 | 0.1 to 1
16 | CCCNC(=O)c1ccc(N2CCN(c3nnc(Cc4ccccc4)c4ccccc34)CC2)nc1 [Example 54n] | < 0.1 | 0.1 to 1 | < 0.1
17 | c1ccc2c(N3CCN(c4nnc(Cc5ccncc5)c5ccccc45)CC3)cccc2c1 [Example 36] | 1 to 10 | 1 to 10 | 0.1 to 1
18 | CS(=O)(=O)NCc1ccc(N2CCN(c3nnc(Cc4ccccc4)c4ccccc34)CC2)nc1 [Example 205] | < 0.1 | 0.1 to 1 | 0.1 to 1
19 | c1ccc(C2CCN(c3nnc(Cc4ccncc4)c4ccccc34)CC2)cc1 [Example 13] | 1 to 10 | 1 to 10 | 1 to 10
20 | O=C(NCCO)c1ccc(N2CCN(c3nnc(Cc4ccccc4)c4ccccc34)CC2)nc1 [Example 54e] | 0.1 to 1 | 0.1 to 1 | < 0.1
21 | CCCc1cnc(N2CCN(c3nnc(Cc4ccccc4)c4ccccc34)CC2)nc1 [Example 42] | < 0.1 | 0.1 to 1 | < 0.1
22 | c1ccc2cc(N3CCN(c4nnc(Cc5ccncc5)c5ccccc45)CC3)ccc2c1 [Example 32] | 0.1 to 1 | 1 to 10 | 0.1 to 1
23 | COCCNC(=O)c1ccc(N2CCN(c3nnc(Cc4ccccc4)c4ccccc34)CC2)nc1 [Example 54f] | 0.1 to 1 | 0.1 to 1 | 0.1 to 1
24 | CC(=O)Nc1ccc(N2CCN(c3nnc(Cc4ccccc4)c4ccccc34)CC2)nc1 [Example 236] | 0.1 to 1 | 0.1 to 1 | 0.1 to 1
25 | c1ccc(Cc2nnc(N3CCN(c4ccccn4)CC3)c3ccccc23)cc1 [Example 24] | 0.1 to 1 | 1 to 10 | 0.1 to 1

Row | Structure (SMILES) | IC50 [1] [µM] | IC50 (Gli-luciferase activity; [2]) [µM] | IC50 (Gli-luciferase activity; [3]) [µM]
26 | CCc1cnc(N2CCN(c3nnc(Cc4ccccc4)c4ccccc34)CC2)nc1 [Example 43] | < 0.1 | < 0.1 | < 0.1
27 | Cc1cc(Cc2nnc(N3CCN(c4ccc5ccccc5c4)CC3)c3ccccc23)ccn1 [Example 33] | 0.1 to 1 | 1 to 10 | 1 to 10
28 | O=C(NCc1ccc(N2CCN(c3nnc(Cc4ccccc4)c4ccccc34)CC2)cc1)OCc1ccccc1 [Example 77] | 0.1 to 1 | 1 to 10 | 0.1 to 1
29 | O=C(c1ccc(N2CCN(c3nnc(Cc4ccccc4)c4ccccc34)CC2)nc1)N1CCC(O)C1 (stereo not drawn) [Example 54o] | 0.1 to 1 | 0.1 to 1 | < 0.1
30 | Cc1cc(Cc2nnc(N3CCN(c4ccccn4)CC3)c3ccccc23)ccn1 [Example 22] | – | 10 to 40 | 1 to 10
31 | Cc1ccc(N2CCN(c3nnc(Cc4ccnc(C)c4)c4ccccc34)CC2C)cc1 (stereo not drawn) [Example 29] | 10 to 40 | 10 to 40 | 1 to 10
32 | Cc1ccnc(N2CCCN(c3nnc(Cc4ccccc4)c4ccccc34)CC2)n1 [Example 41] | 0.1 to 1 | 0.1 to 1 | < 0.1
33 | OCc1ccc(N2CCN(c3nnc(Cc4ccccc4)c4ccccc34)CC2)nc1 [Example 158] | 0.1 to 1 | 1 to 10 | 0.1 to 1
34 | Cc1ccc(N2CCN(c3nnc(Cc4ccccc4)c4ccccc34)CC2C)cc1 (stereo not drawn) [Example 27] | 1 to 10 | 1 to 10 | 0.1 to 1
35 | c1ccc(N2CCN(c3nnc(Cc4ccncc4)c4ccccc34)CC2)nc1 [Example 23] | 10 to 40 | 10 to 40 | 1 to 10
36 | CCCc1cnc(N2CCCN(c3nnc(Cc4ccccc4)c4ccccc34)CC2)nc1 [Example 44] | < 0.1 | 0.1 to 1 | < 0.1
37 | NCc1ccc(N2CCN(c3nnc(Cc4ccccc4)c4ccccc34)CC2)cc1 [Example 73] | 0.1 to 1 | 1 to 10 | 0.1 to 1
38 | N#Cc1ccc(N2CCN(c3nnc(Cc4ccccc4)c4ccccc34)CC2)nc1 [Example 4] | 1 to 10 | – | –
39 | Cc1c(Cc2ccc(F)cc2)nnc(N2CCN(c3ccc(C#N)cn3)CC2)c1C [Example 93a] | < 0.1 | 0.1 to 1 | 0.1 to 1
40 | CC(C)(C)c1ccc(N2CCN(c3nnc(Cc4cc(Cl)cc(Cl)c4)c4ccccc34)CC2)nc1 [Example 9] | < 0.1 | 0.1 to 1 | < 0.1
41 | c1ccc2c(N3CCN(c4cnccn4)CC3)nnc(Cc3ccncc3)c2c1 [Example 20] | 1 to 10 | – | 1 to 10
42 | CC(=O)c1cnc(N2CCN(c3nnc(Cc4ccccc4)c4ccccc34)CC2)cn1 [Example 153] | < 0.1 | 0.1 to 1 | < 0.1
43 | CC(=O)NCc1ccc(N2CCN(c3nnc(Cc4ccccc4)c4ccccc34)CC2)cc1 [Example 75] | 0.1 to 1 | 1 to 10 | 0.1 to 1
44 | N#Cc1ccc(N2CCCN(c3nnc(Cc4ccccc4)c4ccccc34)CC2)nc1 [Example 19] | < 0.1 | 0.1 to 1 | < 0.1
45 | N#Cc1ccc(N2CCN(c3cnc(Cc4cccc(C#N)c4)c4ccccc34)CC2)nc1 [Example 80] | – | 10 to 40 | 1 to 10
46 | CN(C)CCNC(=O)c1ccc(N2CCN(c3nnc(Cc4ccccc4)c4ccccc34)CC2)nc1 [Example 54h] | – | 0.1 to 1 | 0.1 to 1
47 | Cc1cc(Cc2nnc(N3CCN(c4cccc5ccccc45)CC3)c3ccccc23)ccn1 [Example 35] | – | 1 to 10 | 1 to 10
48 | Cc1cc(Cc2nnc(N3CCC(c4ccccc4)CC3)c3ccccc23)ccn1 [Example 14] | – | 1 to 10 | 1 to 10
49 | NCc1ccc(N2CCN(c3nnc(Cc4ccncc4)c4ccccc34)CC2)cc1 [Example 72] | – | 10 to 40 | 1 to 10
